Data set [1] can be described thus: Qualitative solubility in water and solvents. In kind it is physicochemical. The following applies: for Insoluble dans: media in which the compound is insoluble; for Soluble dans: media in which the compound is soluble.
The subject of another data set is souris. Kind of data set: Phenylbenzoquinone (PBQ) writhing test (Siegmund), analgesic activity. In kind it is in vivo. The conditions noted are these: po, 0.5 h; mouse, per os 30 minutes before intraperitoneal PBQ injection; read-out: DE50 (the source's name). The protocol: L'activité sur le test des contorsions à la phényl benzoquinone (PBQ) selon SIEGMUND et Coll., J. Pharm. Exptl. Ther. 1957, 119, 453, a été déterminée après administration du produit per os; la dose est exprimée en mg/kg chez la souris 30 minutes avant l'injection intra-péritonéale de l'agent algogène.
Les résultats sont exprimés en pourcentage de variation du nombre de contorsions. Pour les molécules les plus actives nous avons déterminé la DE50, les résultats sont répertoriés dans le tableau suivant : […]

The nature of data set [2]: Acute oral toxicity in mice (LD50, method of Miller and Tainter). The conditions noted are these: in vivo; mouse about 20 g, oral administration; read-out: DL50 voie orale. The source says:
L'étude de la toxicité a été effectuée chez la souris conventionnelle pesant environ 20 grammes.
Les substances ont été administrées par voie orale. Les doses létales 50 sont exprimées en mg/kg et ont été calculées selon la méthode de MILLER et TAINTER, Proc. Scc. Exper. Biol. Med. 1944, 57, 261.

Another data set relates to P.R.P. de LAPIN. As to the kind of experiment: In vitro platelet anti-aggregation, arachidonic acid-induced, in rabbit PRP. The class given is cell-based. The conditions noted are these: dissolved in PEG 400, incubated 1 minute with PRP before arachidonic acid 2 x 10^-4M; ranking in words. An excerpt: Les produits sont dissous dans le PEG 400, puis additionnés au P.R.P. de LAPIN puis incubés une minute avant l'addition d'agent agrégant (acide arachidonique 2 x 10^-4M). Le produit le plus actif est le ST 938.

`C=COCCn1nc(-c2ccc(OC)cc2)c(-c2ccc(OC)cc2)nc1=O` [ST 777, Oxo-3 vinyloxyéthyl-2 di(paraméthoxyphényl)-5-6 as triazine]: in data set [1], the Insoluble dans entry is on record as “l'eau, les bases et les acides dilués et l'éther” and the Soluble dans entry was “les alcools, le benzène, le chlorure de méthylène et le chloroforme”. Also, the ED50 in the data set on souris was found to be 10 mg/kg. Also, the LD50 in data set [2] is over 1000 mg/kg.
For `COc1ccc(-c2nc(=O)n(CCCCl)nc2-c2ccc(OC)cc2)cc1` [ST 938, Oxo-3 chloropropyl-2 di(paraméthoxyphényl)-5-6 as triazine], in data set [1], the Insoluble dans entry is listed as “l'eau, les bases et les acides dilués et l'éther” and the Soluble dans result is “les alcools, le benzène, le chlorure de méthylène et le chloroforme”. Also, the LD50 in data set [2] is at least 1000 mg/kg. In addition, the “Propriétés antiagrégantes (in vitro)” value with P.R.P. de LAPIN was “le plus actif”.
For `COc1ccc(-c2nc(=O)n(CCO)nc2-c2ccc(OC)cc2)cc1` [ST 791, Oxo-3 hydroxyéthyl-2 di(paraméthoxyphényl)-5-6 as triazine], in data set [1], the Insoluble dans entry was “l'eau, les bases et les acides dilués et l'éther” and the Soluble dans entry is given as “les alcools, le benzène, le chlorure de méthylène et le chloroforme”. Further, in the data set with souris, the ED50 amounted to 9 mg/kg. Besides, the LD50 in data set [2] is over 1000 mg/kg.
Consider `COc1ccc(-c2nc(=O)n(CCN3CCOCC3)nc2-c2ccc(OC)cc2)cc1` [ST 728, Oxo-3 morpholino éthyl-2 di(paraméthoxyphényl)-5-6 as triazine], for which, in data set [1], the Insoluble dans result is on record as “l'eau, les bases diluées et l'éther” and the Soluble dans result is on record as “les acides, les alcools, le benzène, le chlorure de méthylène et le chloroforme”. The LD50 in data set [2] was over 1000 mg/kg.
Take `CN(C)c1ccc(-c2nc(=O)n(CC(O)CO)nc2-c2ccc(N(C)C)cc2)cc1` (stereo not shown) [ST 886]: in data set [1], the Insoluble dans entry is “l'eau et les bases diluées, l'éther” and the Soluble dans entry is recorded as “les acides dilués aqueux, les alcools, le benzène, le chlorure de méthylène et le chloroforme”. Further, the ED50 in the data set on souris was found to be 5.6 mg/kg. Further, the LD50 in data set [2] is over 1000 mg/kg.
Consider `C=CCNCCCn1nc(-c2ccc(OC)cc2)c(-c2ccc(OC)cc2)nc1=O` [ST 876, Oxalatede l'oxo-3 γallylamino propyl-2 di(paraméthoxyphényl)-5-6 as triazine], for which, in data set [1], the Insoluble dans result is “le benzène, l'éther et le chloroforme” and the Soluble dans entry is given as “l'eau, les alcools, et le chlorure de méthylène”. The LD50 in data set [2] worked out at 750 mg/kg.
Take `CN(C)c1ccc(-c2nc(=O)n(CCO)nc2-c2ccc(N(C)C)cc2)cc1` [ST 817, Oxo-3 hydroxyéthyl-2 di(paradimétnylaminophényl)-5-6 as triazine]: in data set [1], the Insoluble dans result is given as “les bases diluées aqueuses, l'eau, le benzène et l'éther” and the Soluble dans result is “les acides dilués, les alcools, le chlorure de méthylène et le chloroforme”. Further, the ED50 in the data set with souris is 1.5 mg/kg. For the same compound, the LD50 in data set [2] is over 1000 mg/kg.
For the compound `CN(C)c1ccc(-c2nc(=O)n(CCOC(=O)c3cccnc3)nc2-c2ccc(N(C)C)cc2)cc1` [ST 883, Oxo-3 nicotinoyloxyéthyl-2 di(paradiméthylaminophényl) 5-6 as triazine], in data set [1], the Insoluble dans entry is listed as “l'eau et les bases diluées, l'éther” and the Soluble dans entry is “les acides dilués, les alcools, le benzène, le chloroforme et le chlorure de méthylène”. Besides, the ED50 in the data set with souris came to 3.1 mg/kg. Further, in data set [2], the LD50 was over 1000 mg/kg.
With `COc1ccc(-c2nc(=O)n(C(C)CN(C)C)nc2-c2ccc(OC)cc2)cc1` (stereo not shown) [ST 766], in data set [1], the Insoluble dans entry is recorded as “l'eau, les bases diluées, le benzène et l'éther” and the Soluble dans entry is listed as “les acides dilués, les alcools, le chlorure de méthylène et le chloroforme”. In addition, the ED50 in the data set with souris came out at 11 mg/kg. Further, in data set [2], the LD50 amounted to 750 mg/kg.
For the compound `CCOC(=O)C(C(=O)OCC)n1nc(-c2ccc(OC)cc2)c(-c2ccc(OC)cc2)nc1=O` [ST 824, Oxo-3 diéthylmalonyl-2 di(paraméthoxyphényl)-5-6 as triazine], in data set [1], the Insoluble dans entry was “l'eau, les bases et les acides dilués et l'éther” and the Soluble dans entry is recorded as “les alcools, le benzène, le chlorure de méthylène et le chloroforme”. In addition, in data set [2], the LD50 is over 1000 mg/kg.
`COc1ccc(-c2nc(=O)n(CCCN3CCN(C)CC3)nc2-c2ccc(OC)cc2)cc1` [ST 881, Dichlorhydratede l'oxo-3 N méthyl piperazinyl-3' propyl-2 di(paraméthoxyphényl)-5-6 as triazine]: in data set [1], the Insoluble dans result is given as “le benzène, le chlorure de méthylène et le chloroforme” and the Soluble dans result was “l'eau, les acides dilués et les alcools”. Also, the ED50 in the data set with souris turned out to be 6.7 mg/kg. Also, in data set [2], the LD50 was over 1000 mg/kg.
Consider `CN(C)c1ccc(-c2nc(=O)n(CC(N)=O)nc2-c2ccc(N(C)C)cc2)cc1` [ST 812, Oxo-3 acétamido-2 di(paradiméthylaminophényl)-5-6 as triazine], for which, in data set [1], the Insoluble dans entry is recorded as “l'eau, les bases diluées, les alcools, le benzène et l'éther” and the Soluble dans entry was “les acides dilués et le chlorure de méthylène”. For the same compound, the ED50 with souris stood at 12 mg/kg. Moreover, the LD50 in data set [2] was over 1000 mg/kg.
As to `CN(C)c1ccc(-c2nc(=O)n(CCCCl)nc2-c2ccc(N(C)C)cc2)cc1` [ST 882, Oxo-3 γ-chloropropyl-2 di(paradiméthyiaminophényl) 5-6 as triazine], in data set [1], the Insoluble dans result is “l'eau et les bases diluées, et l'éther” and the Soluble dans result was “les acides dilués aqueux, les alcools, le benzène, le chlorure de méthylène et le chloroforme”. Further, the ED50 in the data set with souris is 4.6 mg/kg. Besides, the LD50 in data set [2] was over 1000 mg/kg.

The values are drawn from patent EP0099438A1, “2-Functionalised diaryl as-triazines useful in therapy” (PIERRE FABRE S.A., priority 1982, dated 1984).
